In ChEMBL document CHEMBL4823254, “Tetrahydroquinoline-Capped Histone Deacetylase 6 Inhibitor SW-101 Ameliorates Pathological Phenotypes in a Charcot-Marie-Tooth Type 2A Mouse Model” (J Med Chem, 2021):
Calls of active or inactive are those of the source. The calls are words filed in the database; no cut-off is given here.

Columns and labels:
[1] = Half life in mouse plasma; format: ADME, cell-free
[2] = Half life in CD1 mouse pooled liver microsomes assessed as parent compound remaining measured up to 60 mins in presence of NADPH by LC-MS/MS analysis; format: ADME, Microsome; conditions: CD1, mouse, pooled liver microsomes
Histone deacetylase 4 = Histone deacetylase 4 (Homo sapiens, UniProt P56524); assay: Inhibition of recombinant human HDAC4 using Boc-Lys(TFA)-AMC as substrate preincubated for 10 mins followed by substrate addition and measured after 30 mins by fluorescence-based assay
[3] = Stability in CD1 mouse pooled liver microsomes assessed as parent compound remaining measured at 60 mins in presence of NADPH by LC-MS/MS analysis; format: ADME, Microsome; conditions: CD1, mouse, pooled liver microsomes, read-out: Stabilty
Histone deacetylase 1 = Histone deacetylase 1 (Homo sapiens, UniProt Q13547)
Description: Inhibition of Nanoluc-fused HDAC1 (unknown origin) expressed in HEK293 cells incubated for 2 hrs by NANOBRET assay

[4] = molecular target: T1, Protein deacetylase HDAC6 (Homo sapiens, UniProt Q9UBN7)
T1 sequence (Q9UBN7 whole entry): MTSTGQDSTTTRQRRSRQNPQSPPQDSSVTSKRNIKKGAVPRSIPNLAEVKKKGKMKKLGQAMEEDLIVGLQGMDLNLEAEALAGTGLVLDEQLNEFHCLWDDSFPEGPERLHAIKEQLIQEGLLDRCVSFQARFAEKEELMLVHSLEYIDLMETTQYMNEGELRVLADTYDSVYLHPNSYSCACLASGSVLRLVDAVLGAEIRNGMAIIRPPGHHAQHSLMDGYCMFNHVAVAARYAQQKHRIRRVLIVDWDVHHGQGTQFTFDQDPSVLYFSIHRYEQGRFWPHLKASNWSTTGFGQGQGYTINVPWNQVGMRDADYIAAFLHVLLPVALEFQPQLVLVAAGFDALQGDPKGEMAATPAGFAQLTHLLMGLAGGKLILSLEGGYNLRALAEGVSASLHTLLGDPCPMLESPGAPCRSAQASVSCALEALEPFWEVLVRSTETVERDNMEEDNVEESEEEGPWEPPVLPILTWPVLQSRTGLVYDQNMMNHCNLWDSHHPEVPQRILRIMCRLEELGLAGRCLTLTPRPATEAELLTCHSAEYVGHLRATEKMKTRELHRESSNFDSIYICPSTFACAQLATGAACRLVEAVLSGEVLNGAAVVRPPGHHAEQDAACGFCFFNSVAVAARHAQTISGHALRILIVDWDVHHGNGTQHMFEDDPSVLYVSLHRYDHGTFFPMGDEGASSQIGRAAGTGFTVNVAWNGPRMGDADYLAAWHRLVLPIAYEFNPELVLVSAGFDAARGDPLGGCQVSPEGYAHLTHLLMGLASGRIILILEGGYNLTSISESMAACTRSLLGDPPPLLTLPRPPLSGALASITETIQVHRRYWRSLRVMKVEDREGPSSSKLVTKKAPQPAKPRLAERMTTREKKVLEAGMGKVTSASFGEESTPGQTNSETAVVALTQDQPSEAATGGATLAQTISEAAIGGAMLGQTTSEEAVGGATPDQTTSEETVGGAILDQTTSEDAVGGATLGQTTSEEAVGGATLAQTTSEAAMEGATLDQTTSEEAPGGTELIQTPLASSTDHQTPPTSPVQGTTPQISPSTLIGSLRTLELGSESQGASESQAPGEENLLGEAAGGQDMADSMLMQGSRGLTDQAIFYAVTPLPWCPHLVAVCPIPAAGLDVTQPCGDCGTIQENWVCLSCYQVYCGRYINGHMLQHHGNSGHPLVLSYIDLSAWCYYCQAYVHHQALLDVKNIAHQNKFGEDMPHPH
Description: Inhibition of recombinant human HDAC6 using Ac-GAK(Ac)-AMC as substrate preincubated for 10 mins followed by substrate addition and measured after 30 mins by fluorescence-based assay

[5] = Protein binding in mouse plasma; format: ADME, cell-free; conditions: read-out: PPB (converted)
[6] = Unbound AUC (0 to infinity) in C57BL/6J mouse plasma at 15 mg/kg, ip; format: ADME, organism-based; conditions: in vivo
[7] = Genotoxicity in Salmonella typhimurium TA98 at 5 to 100 uM in presence of liver S9 fraction by Ames test; format: toxicity; conditions: salmonella enterica subsp. enterica serovar typhimurium, s9, 100 µM; dose 5-100 µM
[8] = Tmax in C57BL/6J mouse plasma at 15 mg/kg, ip; format: ADME, organism-based
[9] = Genotoxicity in Salmonella typhimurium TA1535 at 5 to 100 uM in absence of liver S9 fraction by Ames test; format: toxicity; conditions: salmonella enterica subsp. enterica serovar typhimurium, s9, 100 µM; dose 5-100 µM
[10] = Genotoxicity in Salmonella typhimurium TA100 at 5 to 100 uM in absence of liver S9 fraction by Ames test; format: toxicity; conditions: salmonella enterica subsp. enterica serovar typhimurium, s9, 100 µM; dose 5-100 µM
Mus musculus = assay: Neuroprotective activity in hMFN2-induced CMT2A transgenic mouse model assessed as increase in motor performance at 20 mg/kg, ip qd administered for 26 weeks when treated prior with compound dissolved in PBS/PEG400/Tween80/EtOH (50/35/10/5) wt% as vehicle by rotarod test; format: functional, organism-based

Sequence of Histone deacetylase 4 (P56524 whole entry): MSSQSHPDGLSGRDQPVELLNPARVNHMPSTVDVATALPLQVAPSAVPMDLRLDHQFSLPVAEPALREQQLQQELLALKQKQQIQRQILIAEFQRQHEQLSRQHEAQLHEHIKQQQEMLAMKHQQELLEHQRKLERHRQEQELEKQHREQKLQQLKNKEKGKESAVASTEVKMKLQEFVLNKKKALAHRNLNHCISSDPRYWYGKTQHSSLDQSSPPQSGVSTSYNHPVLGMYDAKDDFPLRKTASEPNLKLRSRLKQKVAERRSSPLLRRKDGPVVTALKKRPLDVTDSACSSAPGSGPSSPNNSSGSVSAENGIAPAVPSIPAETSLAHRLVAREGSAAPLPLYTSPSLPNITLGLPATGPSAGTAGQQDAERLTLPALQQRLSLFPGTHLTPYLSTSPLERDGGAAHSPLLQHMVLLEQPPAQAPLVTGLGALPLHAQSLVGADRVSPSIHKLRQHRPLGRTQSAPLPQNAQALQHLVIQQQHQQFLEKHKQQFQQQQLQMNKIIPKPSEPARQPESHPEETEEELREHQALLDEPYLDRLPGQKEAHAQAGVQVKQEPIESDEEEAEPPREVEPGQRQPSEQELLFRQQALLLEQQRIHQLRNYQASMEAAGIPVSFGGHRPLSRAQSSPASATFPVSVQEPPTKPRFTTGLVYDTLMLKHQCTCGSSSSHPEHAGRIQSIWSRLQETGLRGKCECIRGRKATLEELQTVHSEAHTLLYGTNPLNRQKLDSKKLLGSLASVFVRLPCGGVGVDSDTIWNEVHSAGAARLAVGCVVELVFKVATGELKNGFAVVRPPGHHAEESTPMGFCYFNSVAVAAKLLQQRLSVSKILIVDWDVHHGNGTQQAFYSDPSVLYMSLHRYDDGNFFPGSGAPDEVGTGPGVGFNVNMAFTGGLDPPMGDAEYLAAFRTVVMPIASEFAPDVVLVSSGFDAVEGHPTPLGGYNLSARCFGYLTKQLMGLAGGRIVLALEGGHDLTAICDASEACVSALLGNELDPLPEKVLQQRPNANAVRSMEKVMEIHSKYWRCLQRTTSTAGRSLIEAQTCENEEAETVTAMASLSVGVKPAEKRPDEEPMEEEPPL
Sequence of Histone deacetylase 1 (Q13547 whole entry): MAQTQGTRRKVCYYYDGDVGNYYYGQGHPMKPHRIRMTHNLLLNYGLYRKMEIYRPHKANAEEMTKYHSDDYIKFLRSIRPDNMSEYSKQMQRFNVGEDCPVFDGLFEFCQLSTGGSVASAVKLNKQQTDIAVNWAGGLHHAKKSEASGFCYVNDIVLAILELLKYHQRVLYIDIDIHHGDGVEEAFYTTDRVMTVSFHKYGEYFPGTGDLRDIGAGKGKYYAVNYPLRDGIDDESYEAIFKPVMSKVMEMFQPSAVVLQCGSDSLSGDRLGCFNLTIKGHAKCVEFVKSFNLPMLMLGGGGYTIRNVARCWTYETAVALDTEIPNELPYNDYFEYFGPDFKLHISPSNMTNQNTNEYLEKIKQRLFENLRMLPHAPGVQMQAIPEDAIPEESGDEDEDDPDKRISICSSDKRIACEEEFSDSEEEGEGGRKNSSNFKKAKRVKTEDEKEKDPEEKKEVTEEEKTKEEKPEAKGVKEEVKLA

half-life [1]: 2.12 h | half-life [2]: 1.48 h | IC50 (Histone deacetylase 4): 0.454 µM | remaining at 1 h [3]: 56% | IC50 (Histone deacetylase 1): 4.83 µM | IC50 [4]: 0.0007 µM | fraction unbound [5]: 0.241 | fAUC [6]: 421 ng·h/mL | Tmax [8]: 4.8 min
SMILES: NC(=O)c1ccc2c(c1)CCCN2Cc1ccc(C(=O)NO)cc1
Activity [7]: Non-Toxic | Activity [9]: Non-Toxic | Activity [10]: Non-Toxic | Activity (Mus musculus): Active
